# Measured values taken from patent US12178811B2, “Methods of treating depressive disorders” (priority 2019, dated 2024).
# “And” between values parts separate entries of the source, which are not always exact repeats. Equal values may be shown once. Read-outs that look alike come from different tables or passages of the source.
# Legend:
# [1] = tested on: male CD-1 mice; experiment: Mouse forced swim test; assay type: in vivo; conditions: for Latency to Immobility / Time Immobile 0-2 min / Time Immobile 0-6 min / Time Immobile 2-6 min: 30 min pretreatment, individual animals; for Latency to Immobility, Average / Time Immobile 0-2 min, Average / Time Immobile 0-6 min, Average / Time Immobile 2-6 min, Average: group average N = 10
# Description: Objective: A study was performed to assess the potential efficacy of Compound A using the mouse forced swim test. The forced swim test is a model of behavioral despair, and is sensitive to detection of various classes of antidepressant drugs (Can et al., The Mouse Forced Swim Test. J. Vis. Exp. 2012 (59), e3638, DOI:10.3791/3638). Study Design: Forty (40) male CD-1 mice received a 1-week period of acclimation to the test facility prior to the commencement of testing (events summarized in Table 1). […] All animal use procedures were performed in accordance with the principles of the Canadian Council on Animal Care (CCAC). Formulation of Compound A: Compound A (99.4% pure) was weighed (no correction for purity) and dissolved in DMSO at 20× the intended final concentration. The 20×DMSO stock solution of Compound A was diluted 20 fold with 0.5% methyl cellulose in water to achieve the final desired concentration. […] The above formulation was kept at room temperature and stirred continuously or vortex mixed prior to each dose administration. Forced swim test: Forty (40) male CD-1 mice received the appropriate dose of the vehicle, test article, or positive control (treatments summarized in Table 3). Following a pre-determined pre-treatment time (Can et al., 2012), animals were gently placed into tall glass cylinders filled with water (20-25° C.). […] The swim test involved scoring the duration of immobility. Over a 6-minute test session, the latency to first immobility was recorded (in seconds). […] Statistical Analysis: The results in Table 4 were tested for significance using T-, univariate, and Dunnett's tests as shown in Tables 5-14.
# [2] = Blood and brain collection after forced swim test (total brain-to-plasma ratio); assay type: in vivo; conditions: CD-1, brain and plasma, mouse, immediately following the forced swim test, read-out: total brain-to-plasma ratio (B/P ratio)
# Description: Blood and Brain Collection: Immediately following the forced swim test, all animals dosed with test article were anesthetized with isoflurane inhalant, and terminal blood collection (˜1 ml) was performed via cardiac puncture into potassium EDTA blood collection tubes (SOP ROD.14.02). Plasma was isolated from whole blood by centrifugation at 3000 rpm at 4° C. for 5 minutes. Once isolated, plasma was placed in cryovials and frozen at −80° C. until shipment for bioanalysis. Following blood collection, animals were decapitated and the whole brain collected as per standard operating procedure (SOP ROD.59). Brains were weighed, flash frozen, and stored at −80° C. until shipment.
compound,measurement,setting,value
"Cc1cc(N2CCc3cc(F)ccc3C2)cc(C)c1NC(=O)CC(C)(C)C [Compound A, N-[4-(6-fluoro-3,4-dihydro-1H-isoquinolin-2-yl)-2,6-dimethylphenyl]-3,3-dimethylbutanamide]",Latency to Immobility,[1]; Compound A 1 mg/kg IP,77 s and 84 s and 206 s and 100 s and 70 s and 109 s and 144 s and 105 s and 130 s and 80 s
same,Time Immobile 0-2 min,[1]; Compound A 1 mg/kg IP,32 sec and 28 sec and 0 sec (3×) and 16 sec and 20 sec (2×) and 4 sec and 7 sec
same,Time Immobile 0-6 min,[1]; Compound A 1 mg/kg IP,174 s and 198 s and 33 s and 125 s and 169 s and 196 s and 134 s and 141 s and 170 s
same,Time Immobile 2-6 min,[1]; Compound A 1 mg/kg IP,142 s and 170 s and 33 s and 109 s and 149 s and 192 s and 134 s and 189 s and 141 s and 150 s
same,"Latency to Immobility, Average",[1]; Compound A 1 mg/kg IP,110.5 s
same,"Time Immobile 0-2 min, Average",[1]; Compound A 1 mg/kg IP,12.7 s
same,"Time Immobile 0-6 min, Average",[1]; Compound A 1 mg/kg IP,153.6 s
same,"Time Immobile 2-6 min, Average",[1]; Compound A 1 mg/kg IP,140.9 s
same,Latency to Immobility,[1]; Compound A 3 mg/kg IP,135 s and 165 s and 155 s and 86 s and 150 s and 127 s and 192 s and 162 s and 83 s and 105 s
same,Time Immobile 0-2 min,[1]; Compound A 3 mg/kg IP,0 sec (7×) and 23 sec and 21 sec and 15 sec
same,Time Immobile 0-6 min,[1]; Compound A 3 mg/kg IP,166 s and 144 s and 122 s and 207 s and 82 s and 146 s and 101 s and 90 s and 184 s and 181 s
same,Time Immobile 2-6 min,[1]; Compound A 3 mg/kg IP,166 s and 144 s and 122 s and 184 s and 82 s and 146 s and 101 s and 90 s and 163 s
same,"Latency to Immobility, Average",[1]; Compound A 3 mg/kg IP,136.0 s
same,"Time Immobile 0-2 min, Average",[1]; Compound A 3 mg/kg IP,5.9 s
same,"Time Immobile 0-6 min, Average",[1]; Compound A 3 mg/kg IP,142.3 s
same,"Time Immobile 2-6 min, Average",[1]; Compound A 3 mg/kg IP,136.4 s
same,effect in the mouse forced swim test model (in words),[1]; Tables 5-13,statistically significant effects
same,Kp at 36 min,[2]; 1 mg/kg IP,2.2
same,Kp at 36 min,[2]; 3 mg/kg IP,2.2
